Experimental data: patent US12678434B2, “Compositions and methods for modulating ACE2 receptor” (priority 2020, dated 2026)
Entries after “also recorded” stand apart in the source; their conditions may differ.

Key:
SARS-CoV-2 = test: Medication use in COVID-19 positive and negative patients (retrospective propensity-score-matched study of hospitalized patients); assay type: in vivo, human; details: for difference in SARS-CoV-2 infection rates between drug use and no drug use: PS-matched groups, significance defined as p<0.05; for SARS-CoV-2 Positive Test Result, percentage of patients (infection rate): drug use group of PS-matched sample, hospitalized patients Jan. 1, 2020 to Dec. 30, 2020
Human recombinant ACE2 = target: T1, Human recombinant ACE2 (Homo sapiens, UniProt Q9BYF1); assay type: biochemical
T1 construct: purchased R&D systems, Minneapolis, USA
T1 sequence (Q9BYF1 18-740 limits assumed): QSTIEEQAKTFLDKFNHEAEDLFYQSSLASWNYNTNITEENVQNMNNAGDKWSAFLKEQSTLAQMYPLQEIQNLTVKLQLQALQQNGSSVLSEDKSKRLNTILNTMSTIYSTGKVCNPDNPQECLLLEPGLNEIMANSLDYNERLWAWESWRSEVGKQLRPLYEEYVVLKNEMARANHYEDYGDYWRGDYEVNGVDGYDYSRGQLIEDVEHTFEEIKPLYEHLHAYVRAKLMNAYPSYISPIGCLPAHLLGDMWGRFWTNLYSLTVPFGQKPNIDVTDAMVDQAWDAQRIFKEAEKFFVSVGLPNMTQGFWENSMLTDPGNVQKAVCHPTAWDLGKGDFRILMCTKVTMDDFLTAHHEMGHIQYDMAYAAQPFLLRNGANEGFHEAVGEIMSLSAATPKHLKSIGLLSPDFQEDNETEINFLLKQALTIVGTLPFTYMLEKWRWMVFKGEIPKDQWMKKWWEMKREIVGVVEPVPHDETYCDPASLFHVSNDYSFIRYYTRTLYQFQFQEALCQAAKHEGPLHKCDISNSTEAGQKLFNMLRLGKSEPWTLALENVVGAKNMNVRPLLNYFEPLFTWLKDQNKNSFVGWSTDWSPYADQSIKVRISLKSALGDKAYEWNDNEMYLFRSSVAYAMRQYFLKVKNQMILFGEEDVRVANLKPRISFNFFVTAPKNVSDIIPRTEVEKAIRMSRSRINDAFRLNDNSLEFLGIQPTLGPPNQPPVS

VERO-E6 cells = assay type: cell-based, monkey; details: 100 μM drug for 6 hours without FBS, then spike protein (30 ug) for 12 hours
[1] = SARS-CoV-2 positive patients, drug use group, PS-matched
[2] = patients who tested positive in PS-matched sample

OCCOCCN1CCN(C(c2ccccc2)c2ccc(Cl)cc2)CC1 (centres unmarked) [Hydroxyzine]
difference in SARS-CoV-2 infection rates between drug use and no drug use (SARS-CoV-2): statistically significantly different
difference in SARS-CoV-2 infection rates between drug use and no drug use (SARS-CoV-2; listed as hydroxyzine): significant difference; also recorded: lower infection rates
ICU Admission, number of patients (SARS-CoV-2; [1]): 5
ICU Admission, percentage of patients (SARS-CoV-2; [1]): 19.23%
ICU LOS (length of stay), mean (standard deviation) (SARS-CoV-2; [1]): 22.4 (26.43)
SARS-CoV-2 Positive Test Result, percentage of patients (infection rate) (SARS-CoV-2): 12.62%
Odds Ratio for SARS-CoV-2 infection (SARS-CoV-2; multiple logistic regression model, drug use as covariate, PS-matched sample): 0.919
difference in ICU admission rates between drug use and no drug use (SARS-CoV-2; [2]): not a significant difference
difference in ICU length of stay between drug use and no drug use (SARS-CoV-2; [2]): not a significant difference
fluorescence signal (ACE2 activity) upon further addition of drug (Human recombinant ACE2): increased
spike protein in the cell lysate (western blot) (VERO-E6 cells): no spike protein

CN(C)CCC(c1ccc(Cl)cc1)c1ccccn1 (centres unmarked) [Chlorpheniramine]
SARS-CoV-2 Positive Test Result, percentage of patients (infection rate) (SARS-CoV-2): 16.67%

CN1CCCC(n2nc(Cc3ccc(Cl)cc3)c3ccccc3c2=O)CC1 (centres unmarked) [Azelastine]
SARS-CoV-2 Positive Test Result, percentage of patients (infection rate) (SARS-CoV-2): 7.69%

CCOC(=O)N1CCC(=C2c3ccc(Cl)cc3CCc3cccnc32)CC1 [Loratadine]
SARS-CoV-2 Positive Test Result, percentage of patients (infection rate) (SARS-CoV-2): 18.65%

CC(C)(C(=O)O)c1ccc(C(O)CCCN2CCC(C(O)(c3ccccc3)c3ccccc3)CC2)cc1 (centres unmarked) [Fexofenadine]
SARS-CoV-2 Positive Test Result, percentage of patients (infection rate) (SARS-CoV-2): 18.92%

CN(C)CCOC(c1ccccc1)c1ccccc1 [Diphenhydramine]
SARS-CoV-2 Positive Test Result, percentage of patients (infection rate) (SARS-CoV-2): 12.8%
concentration at transition point from inhibiting to activating the ACE2 receptor (Human recombinant ACE2): 1 µM
spike protein in the cell lysate (western blot) (VERO-E6 cells): no spike protein

NC(N)=Nc1nc(CSCCC(N)=NS(N)(=O)=O)cs1 [Famotidine]
SARS-CoV-2 Positive Test Result, percentage of patients (infection rate) (SARS-CoV-2): 18.87%

CN1CCC(=C2c3ccccc3CC(=O)c3sccc32)CC1 [Ketotifen]
SARS-CoV-2 Positive Test Result, percentage of patients (infection rate) (SARS-CoV-2): 0 (0%)

O=C(O)COCCN1CCN([C@@H](c2ccccc2)c2ccc(Cl)cc2)CC1 [S-Cetirizine, dextrocetirizine]
fluorescence signal (ACE2 activity) upon further addition of drug (Human recombinant ACE2): further decreased

CN(C)CC/C=C1/c2ccccc2COc2ccc(CC(=O)O)cc21 [Olopatadine]
SARS-CoV-2 Positive Test Result, percentage of patients (infection rate) (SARS-CoV-2): 18.75%

CN(C)CCC(c1ccc(Br)cc1)c1ccccn1 (centres unmarked) [Brompheniramine]
SARS-CoV-2 Positive Test Result, percentage of patients (infection rate) (SARS-CoV-2): 33.33%

CN1CCC[C@H](n2nc(Cc3ccc(Cl)cc3)c3ccccc3c2=O)CC1 [S-Azelastine]
concentration at transition point from inhibiting to activating the ACE2 receptor (Human recombinant ACE2): 1 µM

CNC(=C[N+](=O)[O-])NCCSCc1ccc(CN(C)C)o1 [Ranitidine]
SARS-CoV-2 Positive Test Result, percentage of patients (infection rate) (SARS-CoV-2): 15.29%

CN1CCC[C@@H](n2nc(Cc3ccc(Cl)cc3)c3ccccc3c2=O)CC1 [R-Azelastine]
concentration at transition point from inhibiting to activating the ACE2 receptor (Human recombinant ACE2): 1 µM
spike protein in the cell lysate (western blot) (VERO-E6 cells): no spike protein

CN/C(=N/CCSCc1nc[nH]c1C)NC#N [Cimetidine]
SARS-CoV-2 Positive Test Result, percentage of patients (infection rate) (SARS-CoV-2): 35.71%

O=C(O)COCCN1CCN(C(c2ccccc2)c2ccc(Cl)cc2)CC1 (centres unmarked) [Cetirizine]
SARS-CoV-2 Positive Test Result, percentage of patients (infection rate) (SARS-CoV-2): 17.97%

O=C(O)COCCN1CCN([C@H](c2ccccc2)c2ccc(Cl)cc2)CC1 [Levocetirizine, levocetirizine]
SARS-CoV-2 Positive Test Result, percentage of patients (infection rate) (SARS-CoV-2): 15.38%
fluorescence signal (ACE2 activity) upon further addition of drug (Human recombinant ACE2): further decreased
spike protein in the cell lysate (western blot) (VERO-E6 cells): no spike protein
